Experiments:
Stromelysin-1 = Stromelysin-1 (Homo sapiens, UniProt P08254); assay: Inhibition of recombinant human matrix metalloprotease-3
[1] = target: Matrix metalloproteinase-9 (Homo sapiens, UniProt P14780); assay: Inhibition of recombinant human matrix metalloprotease-9 (gelatinase B)
Interstitial collagenase [2] = target: T1, Interstitial collagenase (Homo sapiens, UniProt P03956); assay: Inhibition of Recombinant human matrix metalloprotease-1
T1 sequence (P03956 whole entry): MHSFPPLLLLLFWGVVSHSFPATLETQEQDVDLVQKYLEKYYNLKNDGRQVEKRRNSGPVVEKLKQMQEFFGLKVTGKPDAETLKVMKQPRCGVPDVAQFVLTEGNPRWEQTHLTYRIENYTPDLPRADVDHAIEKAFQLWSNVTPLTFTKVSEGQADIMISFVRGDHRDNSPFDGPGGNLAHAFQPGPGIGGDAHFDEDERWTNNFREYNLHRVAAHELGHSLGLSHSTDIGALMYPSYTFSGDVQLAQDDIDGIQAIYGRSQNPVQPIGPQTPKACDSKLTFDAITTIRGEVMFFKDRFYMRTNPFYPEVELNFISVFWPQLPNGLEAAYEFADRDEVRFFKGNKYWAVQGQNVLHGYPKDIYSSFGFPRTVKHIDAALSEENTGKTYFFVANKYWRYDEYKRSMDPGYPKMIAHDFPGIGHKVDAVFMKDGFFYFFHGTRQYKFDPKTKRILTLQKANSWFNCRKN

[3] = target: Disintegrin and metalloproteinase domain-containing protein 17 (Homo sapiens, UniProt P78536); assay: Inhibition of recombinant human tumor necrosis factor-alpha converting enzyme
Sequence of Disintegrin and metalloproteinase domain-containing protein 17 (P78536 whole entry, the tested form may be a part): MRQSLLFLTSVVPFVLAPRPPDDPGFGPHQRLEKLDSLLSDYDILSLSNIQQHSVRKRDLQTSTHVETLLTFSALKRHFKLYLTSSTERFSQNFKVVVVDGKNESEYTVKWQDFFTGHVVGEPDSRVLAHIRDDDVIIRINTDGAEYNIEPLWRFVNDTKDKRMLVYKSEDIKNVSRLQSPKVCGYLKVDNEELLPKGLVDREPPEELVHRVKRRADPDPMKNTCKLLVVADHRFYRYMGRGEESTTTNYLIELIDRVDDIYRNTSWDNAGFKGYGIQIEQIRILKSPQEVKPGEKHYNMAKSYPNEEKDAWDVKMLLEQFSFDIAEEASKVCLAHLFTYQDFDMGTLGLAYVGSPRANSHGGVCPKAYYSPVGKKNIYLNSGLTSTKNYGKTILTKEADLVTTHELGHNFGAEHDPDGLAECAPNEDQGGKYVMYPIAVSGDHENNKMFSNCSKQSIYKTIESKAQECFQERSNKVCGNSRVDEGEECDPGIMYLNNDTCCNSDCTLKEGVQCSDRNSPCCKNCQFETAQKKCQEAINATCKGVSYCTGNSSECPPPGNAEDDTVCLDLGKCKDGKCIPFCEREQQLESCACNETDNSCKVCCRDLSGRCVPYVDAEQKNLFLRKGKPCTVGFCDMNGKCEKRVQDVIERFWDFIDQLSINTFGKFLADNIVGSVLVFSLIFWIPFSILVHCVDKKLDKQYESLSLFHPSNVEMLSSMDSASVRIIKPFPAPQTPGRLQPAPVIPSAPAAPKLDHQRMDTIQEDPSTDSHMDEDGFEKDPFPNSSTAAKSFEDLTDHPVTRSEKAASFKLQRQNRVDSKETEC

Interstitial collagenase [4] = target: T1, Interstitial collagenase; assay: Inhibition of recombinant human matrix metalloprotease-1

Sequence of Matrix metalloproteinase-9 (P14780 whole entry): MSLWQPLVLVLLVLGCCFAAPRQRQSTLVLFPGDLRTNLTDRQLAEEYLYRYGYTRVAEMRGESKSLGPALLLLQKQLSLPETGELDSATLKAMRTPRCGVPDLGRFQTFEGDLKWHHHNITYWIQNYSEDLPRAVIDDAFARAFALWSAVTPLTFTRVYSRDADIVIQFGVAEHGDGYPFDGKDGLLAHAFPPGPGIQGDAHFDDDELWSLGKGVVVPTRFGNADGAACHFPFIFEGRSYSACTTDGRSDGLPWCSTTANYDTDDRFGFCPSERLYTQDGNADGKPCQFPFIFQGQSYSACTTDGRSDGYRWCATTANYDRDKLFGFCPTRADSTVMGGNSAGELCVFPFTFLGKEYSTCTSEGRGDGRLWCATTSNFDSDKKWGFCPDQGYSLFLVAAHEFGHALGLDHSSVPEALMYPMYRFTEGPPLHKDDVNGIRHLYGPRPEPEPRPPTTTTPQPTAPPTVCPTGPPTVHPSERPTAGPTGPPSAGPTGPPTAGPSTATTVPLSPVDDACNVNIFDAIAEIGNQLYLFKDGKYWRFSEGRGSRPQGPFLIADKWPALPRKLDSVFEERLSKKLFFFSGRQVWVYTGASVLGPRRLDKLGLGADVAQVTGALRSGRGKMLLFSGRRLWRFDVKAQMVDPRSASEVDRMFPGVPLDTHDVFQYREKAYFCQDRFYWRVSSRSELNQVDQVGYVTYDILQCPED
Sequence of Stromelysin-1 (P08254 whole entry): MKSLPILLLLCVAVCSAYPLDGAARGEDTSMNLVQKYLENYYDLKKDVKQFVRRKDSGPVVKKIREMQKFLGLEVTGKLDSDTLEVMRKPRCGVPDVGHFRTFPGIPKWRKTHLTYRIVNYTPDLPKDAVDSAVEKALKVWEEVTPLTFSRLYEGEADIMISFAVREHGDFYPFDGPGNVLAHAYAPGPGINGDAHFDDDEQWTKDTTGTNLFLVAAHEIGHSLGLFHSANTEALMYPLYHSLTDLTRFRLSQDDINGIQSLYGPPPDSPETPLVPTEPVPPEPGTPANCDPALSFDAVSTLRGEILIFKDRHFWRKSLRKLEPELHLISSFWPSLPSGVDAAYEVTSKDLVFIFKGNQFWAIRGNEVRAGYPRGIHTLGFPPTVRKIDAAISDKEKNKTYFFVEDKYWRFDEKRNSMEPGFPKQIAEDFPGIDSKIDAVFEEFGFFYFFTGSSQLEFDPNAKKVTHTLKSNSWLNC

Structure (SMILES)	Ki (Stromelysin-1)	Ki [1]	Ki (Interstitial collagenase [2])	Ki [3]	Ki (Interstitial collagenase [4])
COc1ccc(S(=O)(=O)N2C[C@@H]3OC(C)(C)O[C@H]3[C@@H](OC(C)=O)[C@@H]2C(=O)NO)cc1	50 nM	47 nM	162 nM	21 nM	
COc1ccc(S(=O)(=O)N2C[C@@H]3OC(C)(C)O[C@H]3[C@@H](O)[C@@H]2C(=O)NO)cc1	3.7 nM	21 nM	26 nM	40 nM	
COc1ccc(S(=O)(=O)N2C[C@H](O)[C@H]3OC(C)(C)O[C@H]3[C@@H]2C(=O)NO)cc1	44 nM	310 nM		22 nM	554 nM

— ChEMBL document CHEMBL1136160, “Design, synthesis and evaluation of novel azasugar-based MMP/ADAM inhibitors” (Bioorg Med Chem Lett, 2003)
